Experimental data: US20230151069A1, “Cyclic Peptides” (LIFEARC, priority 2020, published 2023)
Where two headings read alike, the source gives them in different places. Each block holds one compound with its values, some of them ahead of it. *1 amine or outer side, *2 acyl side, *3 side chain or, on linkers, in order; H or OH if unused. Where a SMILES comes first, the peptide text is derived from it. Bridges are numbered along the chain shown (N, C = ends). CH2 = C([*:1])[*:2]

Experiments:
TAP01 (MoG1K) antibody = assay: Thioacetal bridged cyclic peptide binding ELISA with TAP01 antibody; design: species or system mouse
Experimental: (§1) • 1. […] Incubate at 4° C. overnight • 3. Wash the plate (NUNC 384 program) • 4. […] Incubate at RT for 1 hour • 6. Wash the plate (NUNC 384 program) • 7. […] Incubate at 4° C. overnight • 9. Wash the plate (NUNC 384 program) • 10. […] Transfer 30 μL/well onto the assay plate • 12. Incubate at 37° C. for 1 hour • 13. Wash the plate (NUNC 384 program) • 14. […] Incubate at 37° C. for 1 hour 16. Wash the plate (NUNC 384 program) 17. […] Incubate at RT for 10 min in the dark 19.
(§2) Binding to comparators antibodies was also assessed.
(§3) Binding to comparator antibodies was also assessed (FIG. 26).

Bapineuzumab = assay: Cyclic peptide binding ELISA with comparator antibody Bapineuzumab
Experimental: as §1, §2, §3

Solanezumab = assay: Cyclic peptide binding ELISA with comparator antibody Solanezumab; details: FIGS. 7, 22
Experimental: as §1
(§4) Binding of the TAP01 antibody has been assessed to these thioacetal bridged cyclic peptide variants by ELISA (FIGS. 20-22 and Table 5). Binding to comparators antibodies was also assessed.

BAN2401 = assay: Cyclic peptide binding ELISA with comparator antibody BAN2401; details: FIGS. 7, 22
Experimental: as §1, §4

[1] = test system: disulphide bridged 1-14 cyclic peptide 3, 12; details: mouse 5 (best immune response), FIG. 8
Experimental: • 1. […] Incubate at 4° C. overnight • 3. Wash the plate (NUNC 384 program) • 4. […] Incubate at RT for 1 hour • 6. Wash the plate (NUNC 384 program) • 7. […] Incubate at 4° C. overnight • 9. Wash the plate (NUNC 384 program) • 10.

pE3-42 amyloid peptide = assay: Immunisation with disulphide bridged peptide, sera pE3-42 peptide binding ELISA; format: in vivo, mice and rabbits; details: sera after immunisation with disulphide bridged peptide
Experimental: • 1. Coat 384-well plate with 30 μL/well of 100 ng/ml PSL amyloid 1-42 peptide (Human-Peptide Specialty Laboratories-CEM1904161) diluted in carb/bicarb buffer • 2. Incubate at 37° C. for 1 hour • 3. Wash the plate (NUNC 384 program) • 4. […] Incubate at 4° C. overnight • 6. Wash the plate (NUNC 384 program) • 7. […] Transfer 30 μL/well onto the assay plate • 10. Incubate at 37° C. for 1 hour • 11. Wash the plate (NUNC 384 program) • 12. […] Incubate at 37° C. for 1 hour • 14. Wash the plate (NUNC 384 program) • 15. […] Incubate at RT for 10 min in the dark • 17. […] Coat 384-well plate with 30 μL/well of 100 ng/ml PSL amyloid pE3-42 peptide (Human-Peptide Specialty Laboratories-CEM062210 Pyr) diluted in carb/bicarb buffer • 2. Incubate at 37° C. for 1 hour • 3. Wash the plate (NUNC 384 program) • 4. […] Incubate at 4° C. overnight • 6. Wash the plate (NUNC 384 program) • 7. […] Transfer 30 μL/well onto the assay plate • 10. Incubate at 37° C. for 1 hour • 11. Wash the plate (NUNC 384 program) • 12. […] Incubate at 37° C. for 1 hour • 14. Wash the plate (NUNC 384 program) • 15. […] Incubate at RT for 10 min in the dark • 17.

4-42 amyloid peptide = details: sera after immunisation with disulphide bridged peptide, ELISA
Experimental: • 1. […] Wash the plate (NUNC 384 program) • 4. […] Wash the plate (NUNC 384 program) • 7. […] Incubate at 37° C. for 1 hour • 13. Wash the plate (NUNC 384 program) • 14.

ProBioDrug 6_1_6 = assay: Cyclic peptide binding ELISA with comparator antibody ProBioDrug 6_1_6; details: FIG. 7
Experimental: (§5) • 1. […] Incubate at 4° C. overnight • 3. Wash the plate (NUNC 384 program) • 4. […] Incubate at RT for 1 hour • 6. Wash the plate (NUNC 384 program) • 7. […] Incubate at 4° C. overnight • 9. Wash the plate (NUNC 384 program) • 10. […] Transfer 30 μL/well onto the assay plate • 13. Incubate at 37° C. for 1 hour • 14. Wash the plate (NUNC 384 program) • 15. […] Incubate at 37° C. for 1 hour • 17. Wash the plate (NUNC 384 program) • 18.
as §1
(§6) ProBioDrug 6_1_6 (Deposit No. DSM ACC 2924) and ProBioDrug 24_2_3 (Deposit No. DSM ACC 2926) are described in […].

ProBioDrug 24_2_3 = assay: Cyclic peptide binding ELISA with comparator antibody ProBioDrug 24_2_3; details: FIG. 7
Experimental: as §5, §1, §6

[2] = test system: thioacetal bridged 1-14 cyclic peptide 3,12; assay: Immunisation with thioacetal bridged peptide, sera binding ELISA to thioacetal bridged cyclic peptide; format: in vivo, rabbits and mice
Experimental: as §1

[3] = Stability comparison of both versions of the constrained cyclic peptide; format: physicochemical; details: listed as thioacetal bridged peptide
[4] = test system: biotinylated cyclised peptide; assay: Sera of actively immunised 5XFAD and Tg4-42 mice, binding ELISA to cyclised peptide; format: in vivo, mouse; details: FIGS. 32 and 33
Experimental: as §1
Animals (SXFAD and Tg4-42 mice) were immunised with thioacetal bridged cyclic peptide 1-14 and sera were screened for binding to biotinylated cyclised peptide as previously described above.

TAP01 antibody = assay: Proline mutated peptide binding to TAP01 antibody using Biacore T200; design: species or system mouse; details: Biacore T200, FIG. 23

Compound: CC(C)[C@H](NC(=O)[C@H](CCC(=O)O)NC(=O)[C@@H]1CSCSC[C@H](N)C(=O)N[C@@H](C)C(=O)N[C@@H](CCC(=O)O)C(=O)N[C@@H](Cc2ccccc2)C(=O)N[C@@H](CCCNC(=N)N)C(=O)N[C@@H](Cc2c[nH]cn2)C(=O)N[C@@H](CC(=O)O)C(=O)N[C@@H](CO)C(=O)NCC(=O)N1)C(=O)N[C@@H](Cc1c[nH]cn1)C(=O)N[C@@H](Cc1c[nH]cn1)C(=O)O [1, 10] (H-CAEFRHDSGCEVHH-OH; linker 1-10 via CH2; N-terminus and C-terminus assumed)
EC50 (TAP01 (MoG1K) antibody; TAP01 (MoG1K) binding to thioacetal bridged cyclic peptide variants, Table 7, read-out: EC50): 12 nM

Compound: CC(C)[C@H](NC(=O)[C@H](CCC(=O)O)NC(=O)[C@@H]1CSCSC[C@H](N)C(=O)N[C@@H](C)C(=O)N[C@@H](CCC(=O)O)C(=O)N[C@@H](Cc2ccccc2)C(=O)N[C@@H](CCCNC(=N)N)C(=O)N[C@@H](Cc2c[nH]cn2)C(=O)N[C@@H](CC(=O)O)C(=O)N[C@@H](CO)C(=O)NCC(=O)N1)C(=O)N[C@@H](Cc1c[nH]cn1)C(=O)N[C@@H](Cc1c[nH]cn1)C(=O)O [Peptide 1, 10] (H-CAEFRHDSGCEVHH-OH; linker 1-10 via CH2; N-terminus and C-terminus assumed)
EC50 (TAP01 (MoG1K) antibody; TAP01 (MoG1K), FIG. 25, unit inferred, read-out: calculated EC50 value): 12 nM
binding to comparator antibody Bapineuzumab (Bapineuzumab; FIGS. 7, 22, 26, 34): Binding to the comparator antibody Bapineuzumab was seen

EC50 (TAP01 (MoG1K) antibody; TAP01 (MoG1K) binding to thioacetal bridged cyclic peptide variants, Table 5, read-out: EC50): 1.33 nM
binding to comparator antibody Bapineuzumab (Bapineuzumab; FIGS. 7, 22, 26, 34): able to bind
binding to comparator antibody Solanezumab (Solanezumab): low affinity
binding to comparator antibody BAN2401 (BAN2401): low affinity
Compound: CC(C)[C@H](NC(=O)[C@H](CCC(=O)O)NC(=O)[C@@H]1CSCSC[C@H](NC(=O)[C@@H](N)CC(=O)O)C(=O)N[C@@H](CCC(=O)O)C(=O)N[C@@H](Cc2ccccc2)C(=O)N[C@@H](CCCNC(=N)N)C(=O)N[C@@H](Cc2c[nH]cn2)C(=O)N[C@@H](CC(=O)O)C(=O)N[C@@H](CO)C(=O)NCC(=O)N1)C(=O)N[C@@H](Cc1c[nH]cn1)C(=O)N[C@@H](Cc1c[nH]cn1)C(=O)O [Peptide 2, 10] (H-DCEFRHDSGCEVHH-OH; linker 2-10 via CH2)
binding to comparator antibody Bapineuzumab (Bapineuzumab; FIGS. 7, 22, 26, 34, listed as cyclic peptide 2, 10): Binding to the comparator antibody Bapineuzumab was seen

Compound: DA*CFRHDSGYE*CHH-Biotin (*S—S* bridge) [1-14 cyclic peptide (disulphide bridged)]
serum titre to the disulphide bridged cyclic peptide [1]: 1/3200
sera binding to pE3-42 amyloid peptide (pE3-42 amyloid peptide): Minimal binding
sera binding to 4-42 amyloid peptide (4-42 amyloid peptide): Minimal binding

Compound: DAC*FRHDSGYEC*HH-[Cys]- amide (*S—CH2—S* bridged) [1-14 cyclic peptide (thioacetal bridged)]
binding of TAP01 to the cyclic peptide (hairpin epitope) (TAP01 (MoG1K) antibody; FIG. 7): able to bind
binding to comparator antibody Bapineuzumab (Bapineuzumab; FIGS. 7, 22, 26, 34): None of the comparator antibodies tested were able to bind
binding to comparator antibody Solanezumab (Solanezumab): None of the comparator antibodies tested were able to bind
binding to comparator antibody BAN2401 (BAN2401): None of the comparator antibodies tested were able to bind
binding to comparator antibody ProBioDrug 6_1_6 (ProBioDrug 6_1_6): None of the comparator antibodies tested were able to bind
binding to comparator antibody ProBioDrug 24_2_3 (ProBioDrug 24_2_3): None of the comparator antibodies tested were able to bind
titres of response compared with disulphide bridged peptide ([2]; mice): higher titres
serum titre to thioacetal bridged cyclic peptide ([2]; mice 3 and 4, FIG. 13): 1/24300
serum titre to thioacetal bridged cyclic peptide ([2]; mouse 2, FIG. 13): 1/72900
immune response after immunisation ([2]; rabbits and mice, FIG. 13): immune response was generated
stability compared with disulphide bridged cyclic peptide [3]: more chemically stable
immune response, sera binding to biotinylated cyclised peptide [4]: good immune response

Compound: DAPFRHDSGYEVHH (Residue 3 (E to P))
binding to TAP01 antibody (TAP01 antibody): no binding observed

binding to TAP01 antibody (TAP01 antibody): bind in a dose dependant manner
Compound: PPEFRHDSGYEVHH (Residue 1 and 2 (D to P and A to P))

Compound: PPPFRHDSGYEVHH (Residue 1, 2 and 3 (D to P and A to P and E to P))
binding to TAP01 antibody (TAP01 antibody): bind in a dose dependant manner
